Assay results: US20160317632A1, “USE OF CBP/EP300 BROMODOMAIN INHIBITORS FOR CANCER IMMUNOTHERAPY” (GENENTECH, INC., priority 2013, published 2016)

Columns and labels:
Assay type in all cases: cell-based, human
CD8+ T cells [1] = assay: gene expression in stimulated CD8+ T cells by q-RT-PCR (FIGS. 9-10); conditions: for expression of LAG3, TIM3 and CTLA4: FIG. 9; for GZMB expression (effector function of CD8+ T cells): FIG. 10
Procedure: (§1) Naïve CD4+CD45RA+ T cells were isolated from healthy human PBMCs using Miltenyi Biotec naïve human T cell isolation kit (cat#130-094-131). Isolated cells were cultured at 10e6 cells/ml under iTreg-differentiation conditions using Dynabeads (Invitrogen; cat#11132D) at 1:1 ratio of beads to cells+human recombinant IL-2 (10 ng/ml) (R&D, cat#202-IL-010)+human recombinant TGFb (10 ng/ml) (Invitrogen; cat# PHG9204). After 16 hours the CBP inhibitors CBP/EP300(3) and CBP/EP300(4) were added using DMSO as control. CD8+ T cells were isolated from healthy human PBMCs using Militenyi Biotec human CD8 T cell isolation kit (cat#130-095-236) and cultured at 10e6 cells/ml with human T activator Dynabeads at 1:1 ratio of cells to cells with the addition of 10 ng/ml of recombinant human IL-2. 3 days after CD8+ T cell stimulation supernatants were collected and analyzed for CD8+ T cell associated effector function cytokines IFNg and TNFα by Luminex. Data in FIG. 10 show IFNγ (A) and TNFα (B) (pg/ml) secreted in the supernatants of CD8+ T cells stimulated with compounds CBP/EP300(3) and CBP/EP300(4), using DMSO as control.
3 days after CD8+ T cell stimulation mRNA was extracted using mRNA Catcher™ PLUS Purification Kit (Invitrogen; K1570-02). Gene expression of Lag3, CTLA4 and TIM3, genes encoding inhibitory receptors on the surface of CD8+ T cells and under the transcriptional control of CBP/p300, was analyzed by q-RT-PCR. Foxp3 expression and Granzyme B (GZMB) expression, a gene encoding effector function of CD8+ T cells, were also analyzed by q-RT-PCR. Beta-2-microglobulin (B2M) was used as house-keeping gene.

CD8+ T cells [2] = assay: IFNγ and TNFα in supernatants of stimulated CD8+ T cells by Luminex; conditions: supernatants 3 days after stimulation
Procedure: as §1

iTreg cells [3] = assay: Foxp3 protein expression in iTreg cells by flow cytometry (FIG. 8); conditions: 4 days after stimulation
Procedure: as §1, with “Data in FIG. 10 show IFNγ (A) and TNFα (B) (pg/ml) secreted in the supernatants of CD8+ T cells stimulated with compounds CBP/EP300(3) and CBP/EP300(4), using DMSO as control.” left out
Cells from iTreg cultures were first stained with CD4 APC-CY7 and CD25 Pacific blue (both from BD pharmigen, cat#557811 and 560355, respectively); this was followed by fixation/permeabilization step and staining for intracellular Foxp3 FITC using human Foxp3 staining kit (eBioscience; cat#77-5774-40) according to the manufacturer protocol. FOXP3 expression by FACS was typically measured 4 d post-activation.

iTreg cells [4] = assay: Foxp3 expression in iTreg differentiating cells by q-RT-PCR (FIG. 7)
Procedure: as §1, with “Data in FIG. 10 show IFNγ (A) and TNFα (B) (pg/ml) secreted in the supernatants of CD8+ T cells stimulated with compounds CBP/EP300(3) and CBP/EP300(4), using DMSO as control.” left out
3 days after CD8+ T cell stimulation mRNA was extracted using mRNA Catcher™ PLUS Purification Kit (Invitrogen; K1570-02). Gene expression of Lag3, CTLA4 and TIM3, genes encoding inhibitory receptors on the surface of CD8+ T cells and under the transcriptional control of CBP/p300, was analyzed by q-RT-PCR. Foxp3 expression and Granzyme B (GZMB) expression, a gene encoding effector function of CD8+ T cells, were also analyzed by q-RT-PCR. […]

Structure (SMILES) | expression of LAG3, TIM3 and CTLA4 (CD8+ T cells [1]) | GZMB expression (effector function of CD8+ T cells) (CD8+ T cells [1]) | cytokine production (IFNγ, TNFα) by CD8+ T cells (CD8+ T cells [2]) | Foxp3 protein expression (iTreg cells [3]) | Foxp3 expression, fold change over unstimulated naïve T cells (iTreg cells [4])
C[C@H]1Nc2c(cccc2C(=O)NCCCN2CCOc3ccccc32)NC1=O [CBP/EP300(3)] | dose-dependent reduction in the expression of LAG3, TIM3 and CTLA4 | did not affect effector function of CD8+ T cells | minimally affect | decrease Foxp3 protein expression in iTreg cells | decrease Foxp3 expression in iTreg cells in a dose dependent manner
COc1ccc2c(c1)N(CCCNC(=O)c1cccc3c1N[C@H](C)C(=O)N3)CCC2 [CBP/EP300(4)] | dose-dependent reduction in the expression of LAG3, TIM3 and CTLA4 | did not affect effector function of CD8+ T cells | minimally affect | decrease Foxp3 protein expression in iTreg cells | decrease Foxp3 expression in iTreg cells in a dose dependent manner
